# Assays:
# Assay in all cases: relative viability (nuclei count vs DMSO), 5 days (fraction); higher = more cells survive
# LK-2 = test system: LK-2
# In short: (§1)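 Lung cancer cell lines in 1536-well plates got either a single drug or a fixed anchor-drug dose together with five library-drug doses (not always all listed) in √10 steps, by pin tool, on the day after seeding. Nuclei were counted after 5 days, and relative viability is the treated-to-vehicle ratio of nuclei counts. Values are medians of duplicate plates.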
# NCI-H2085 = test system: NCI-H2085
# In short: as §1
# NCI-H2405 = test system: NCI-H2405
# In short: as §1
# UMC-11 = test system: UMC-11
# In short: as §1
# H3255 = test system: H3255
# In short: as §1
# LCLC-103H = test system: LCLC-103H
# In short: as §1
# NCI-H322M = test system: NCI-H322M
# In short: as §1
# LU99A = test system: LU99A
# In short: as §1
# NCI-H2228 = test system: NCI-H2228
# In short: as §1
# NCI-H1437 = test system: NCI-H1437
# In short: as §1
# NCI-H1651 = test system: NCI-H1651
# In short: as §1
# RERF-LC-KJ = test system: RERF-LC-KJ
# In short: as §1
# NCI-H1792 = test system: NCI-H1792
# In short: as §1
# NCI-H23 = test system: NCI-H23
# In short: as §1
# HARA = test system: HARA
# In short: as §1
# LXF-289 = test system: LXF-289
# In short: as §1
# 201T = test system: 201T
# In short: as §1
# HCC-827 = test system: HCC-827
# In short: as §1
# COR-L 105 = test system: COR-L 105
# In short: as §1
# LC-2-ad = test system: LC-2-ad
# In short: as §1
# CAL-12T = test system: CAL-12T
# In short: as §1
# HCC-15 = test system: HCC-15
# In short: as §1
# BEN = test system: BEN
# In short: as §1
smiles,measurement,setting,value
O=c1[nH]c2ccccc2n1C1CCN(CCCC(c2ccc(F)cc2)c2ccc(F)cc2)CC1 [Pimozide] + Cc1nc(Nc2ncc(C(=O)Nc3c(C)cccc3Cl)s2)cc(N2CCN(CCO)CC2)n1 [Dasatinib] (partner 0.075 µM),relative viability,LK-2; first compound 0.08 µM,0.33
same,relative viability,LK-2; first compound 0.253 µM,0.273
same,relative viability,LK-2; first compound 2.53 µM,0.242
same,relative viability,LK-2; first compound 8 µM,0.24
same,relative viability,NCI-H2085; first compound 0.08 µM,0.209
same,relative viability,NCI-H2085; first compound 0.253 µM,0.249
same,relative viability,NCI-H2085; first compound 0.8 µM,0.221
same,relative viability,NCI-H2085; first compound 2.53 µM,0.232
same,relative viability,NCI-H2085; first compound 8 µM,0.257
same,relative viability,NCI-H2405; first compound 0.08 µM,0.219
same,relative viability,NCI-H2405; first compound 0.253 µM,0.228
same,relative viability,NCI-H2405; first compound 0.8 µM,0.198
same,relative viability,NCI-H2405; first compound 2.53 µM,0.187
same,relative viability,NCI-H2405; first compound 8 µM,0.188
same,relative viability,UMC-11; first compound 0.08 µM,0.46
same,relative viability,UMC-11; first compound 0.253 µM,0.45
same,relative viability,UMC-11; first compound 0.8 µM,0.468
same,relative viability,UMC-11; first compound 2.53 µM,0.431
same,relative viability,UMC-11; first compound 8 µM,0.424
same,relative viability,H3255; first compound 0.253 µM,0.355
same,relative viability,H3255; first compound 0.8 µM,0.51
same,relative viability,H3255; first compound 2.53 µM,0.446
same,relative viability,H3255; first compound 8 µM,0.323
same,relative viability,LCLC-103H; first compound 0.08 µM,0.531
same,relative viability,LCLC-103H; first compound 0.253 µM,0.373
same,relative viability,LCLC-103H; first compound 0.8 µM,0.371
same,relative viability,LCLC-103H; first compound 2.53 µM,0.518
same,relative viability,LCLC-103H; first compound 8 µM,0.549
same,relative viability,NCI-H322M; first compound 0.253 µM,0.234
same,relative viability,NCI-H322M; first compound 0.8 µM,0.247
same,relative viability,NCI-H322M; first compound 2.53 µM,0.257
same,relative viability,NCI-H322M; first compound 8 µM,0.231
same,relative viability,LU99A; first compound 0.08 µM,0.539
same,relative viability,LU99A; first compound 0.253 µM,0.527
same,relative viability,LU99A; first compound 0.8 µM,0.531
same,relative viability,LU99A; first compound 2.53 µM,0.459
same,relative viability,LU99A; first compound 8 µM,0.459
same,relative viability,NCI-H2228; first compound 0.08 µM,0.524
same,relative viability,NCI-H2228; first compound 0.253 µM,0.604
same,relative viability,NCI-H2228; first compound 0.8 µM,0.448
same,relative viability,NCI-H2228; first compound 2.53 µM,0.345
same,relative viability,NCI-H2228; first compound 8 µM,0.315
same,relative viability,NCI-H1437; first compound 0.08 µM,0.483
same,relative viability,NCI-H1437; first compound 0.253 µM,0.43
same,relative viability,NCI-H1437; first compound 0.8 µM,0.402
same,relative viability,NCI-H1437; first compound 2.53 µM,0.289
same,relative viability,NCI-H1437; first compound 8 µM,0.249
same,relative viability,NCI-H1651; first compound 0.08 µM,0.436
same,relative viability,NCI-H1651; first compound 0.253 µM,0.455
same,relative viability,NCI-H1651; first compound 0.8 µM,0.388
same,relative viability,NCI-H1651; first compound 2.53 µM,0.399
same,relative viability,NCI-H1651; first compound 8 µM,0.391
same,relative viability,RERF-LC-KJ; first compound 0.08 µM,0.775
same,relative viability,RERF-LC-KJ; first compound 0.253 µM,0.611
same,relative viability,RERF-LC-KJ; first compound 0.8 µM,0.696
same,relative viability,RERF-LC-KJ; first compound 2.53 µM,0.66
same,relative viability,RERF-LC-KJ; first compound 8 µM,0.501
same,relative viability,NCI-H1792; first compound 0.08 µM,0.89
same,relative viability,NCI-H1792; first compound 0.253 µM,0.823
same,relative viability,NCI-H1792; first compound 0.8 µM,0.769
same,relative viability,NCI-H1792; first compound 2.53 µM,0.973
same,relative viability,NCI-H1792; first compound 8 µM,0.849
same,relative viability,NCI-H23; first compound 0.08 µM,0.887
same,relative viability,NCI-H23; first compound 0.253 µM,0.84
same,relative viability,NCI-H23; first compound 0.8 µM,0.71
same,relative viability,NCI-H23; first compound 2.53 µM,0.679
same,relative viability,NCI-H23; first compound 8 µM,0.802
same,relative viability,HARA; first compound 0.253 µM,0.262
same,relative viability,HARA; first compound 0.8 µM,0.275
same,relative viability,HARA; first compound 2.53 µM,0.247
same,relative viability,HARA; first compound 8 µM,0.304
same,relative viability,LXF-289; first compound 0.08 µM,0.236
same,relative viability,LXF-289; first compound 0.253 µM,0.277
same,relative viability,LXF-289; first compound 0.8 µM,0.241
same,relative viability,LXF-289; first compound 2.53 µM,0.205
same,relative viability,LXF-289; first compound 8 µM,0.226
same,relative viability,201T; first compound 0.08 µM,0.573
same,relative viability,201T; first compound 0.253 µM,0.527
same,relative viability,201T; first compound 0.8 µM,0.564
same,relative viability,201T; first compound 2.53 µM,0.516
same,relative viability,201T; first compound 8 µM,0.52
same,relative viability,HCC-827; first compound 0.253 µM,0.265
same,relative viability,HCC-827; first compound 0.8 µM,0.327
same,relative viability,HCC-827; first compound 2.53 µM,0.32
same,relative viability,HCC-827; first compound 8 µM,0.34
same,relative viability,COR-L 105; first compound 0.253 µM,0.427
same,relative viability,COR-L 105; first compound 0.8 µM,0.411
same,relative viability,COR-L 105; first compound 2.53 µM,0.293
same,relative viability,COR-L 105; first compound 8 µM,0.301
same,relative viability,LC-2-ad; first compound 0.08 µM,0.571
same,relative viability,LC-2-ad; first compound 0.253 µM,0.518
same,relative viability,LC-2-ad; first compound 0.8 µM,0.447
same,relative viability,LC-2-ad; first compound 2.53 µM,0.548
same,relative viability,LC-2-ad; first compound 8 µM,0.493
same,relative viability,CAL-12T; first compound 0.08 µM,0.378
same,relative viability,CAL-12T; first compound 0.253 µM,0.404
same,relative viability,CAL-12T; first compound 0.8 µM,0.415
same,relative viability,CAL-12T; first compound 2.53 µM,0.333
same,relative viability,CAL-12T; first compound 8 µM,0.259
same,relative viability,HCC-15; first compound 0.08 µM,0.651
same,relative viability,HCC-15; first compound 0.253 µM,0.577
same,relative viability,HCC-15; first compound 0.8 µM,0.551
same,relative viability,HCC-15; first compound 2.53 µM,0.565
same,relative viability,HCC-15; first compound 8 µM,0.495
same,relative viability,BEN; first compound 0.08 µM,0.279
same,relative viability,BEN; first compound 0.253 µM,0.364
same,relative viability,BEN; first compound 0.8 µM,0.26
same,relative viability,BEN; first compound 2.53 µM,0.329
same,relative viability,BEN; first compound 8 µM,0.412
